According to patent publication US20210371804A1, “Videomicroscopy of contractile cell cultures and cell culture methods using same” (Institut de Cardiologie de Montréal, priority 2020, published 2021):

System: neonatal cardiomyocytes
Test: Videomicroscopy of contraction (composite signal ΔS) of neonatal cardiomyocyte monolayers
Assay type: cell-based, rat
Details: 1 minute after injection
Procedure: All animal-handling procedures were concordant with the Canadian Council on Animal Care guidelines and were approved by the institutional Animal Research Ethics Committee. Isolation was performed according to the protocol of the neonatal cardiomyocyte isolation kit from Worthington. In summary, one to three days old rats (Sprague-Dawley, Charles River) were sacrificed by decapitation. Beating heart were removed from the rats and immediately put in cold Ca^2+ and Mg^2+-free Hank's Balanced Salt Solution. Ventricular muscle was selected by excision and tissue was minced on ice into 1-3 mm^3 pieces. The mixture was subjected to purified enzymatic digestion (trypsin and collagenase). Isolated cells (enriched cardiomyocytes) were counted and seeded at a density of 10^6 cells/mL in the seeding area of the membrane pre-coated with 0.2% porcine-derived gelatin (G1890, Sigma) and 0.00125% fibronectin solution (F1141, Sigma). Cells were grown for 24 hours in DMEM (319-050-CL, Wisent) with 5% fetal bovine serum (FBS, SH30396.03, Fisher Scientic Co. Ltd) and 1% penicillin/streptomycin (450-201-EL, Wisent). Cardiomyocytes were then FBS starved with 1% penicillin/streptomycin in DMEM 24 h prior to the experiments. Acute effects of the β-adrenergic agonist, isoproterenol (ISO, 16504, Sigma-Aldrich) was studied by videomicroscopy with final concentration of 100 nM at 1 minute after injection. […]

CC(C)NCC(O)c1ccc(O)c(O)c1 (centres unmarked) [ISO, isoproterenol]
slope of the linear regression of <RatioC/R> as a function of <T> (ISO 100 nM, 0.146 for CTL, <T> and group effects p<0.001): 0.490
period of activity (ISO final concentration 100 nM, vs. 1.9±2.4 s in CTL, p<0.05): 0.9 ± 0.6 s
